From the NIST ThermoML archive (doi:10.1021/acs.jced.8b00814)
Numbers after ± are expanded uncertainties.

Conditions: 101.33 kPa, Liquid, Vibrating tube method

O [water]
Conditions | mass density [kg/m3]
283.15 K | 999.66 ± 1.9
308.15 K | 994.11 ± 1.9
313.15 K | 992.32 ± 1.9
318.15 K | 990.34 ± 1.9
323.15 K | 988.18 ± 1.9
328.15 K | 985.87 ± 1.9
333.15 K | 983.4 ± 1.9
338.15 K | 980.78 ± 1.9
343.15 K | 978.02 ± 1.9
348.15 K | 975.13 ± 1.9
353.15 K | 972.11 ± 1.9
358.15 K | 968.95 ± 1.9
363.15 K | 965.71 ± 1.9
